# Test results as given in US20240343733A1, “COMPOUNDS FOR TARGETING DEGRADATION OF IRAK4 PROTEINS” (BIOGEN MA INC., priority 2021, published 2024).
# What was measured:
# [1] = target: T1, IKZF1 (Homo sapiens, UniProt Q13422); experiment: IKZF1 Degradation Assay, HiBiT Method; type: cell-based; conditions: NCIH929 cells expressing HiBiT-tagged IKZF1, 6 hours, top concentration 10 μM
# T1 construct: endogenously expressing IKZF1 with HiBiT fusion tag via CRISPR
# Summary of the method: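 NCIH929 cells expressing HiBiT-tagged IKZF1, 15000 cells/well in RPMI with 10% FBS and 0.05 mM 2-mercaptoethanol, exposed to compound 6 h at 37 °C. Remaining IKZF1 quantified by lytic HiBiT luminescence, normalised to untreated-cell and medium-only controls.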
# [2] = tested on: IRAK4; experiment: Pharmacodynamics (PD) in Male Cynomolgus Monkeys, IRAK4 quantitation in PBMCs by MSD; type: in vivo; conditions: male cynomolgus monkey PBMCs
# Experimental: Assay 6. Pharmacodynamics (PD) in Male Cynomolgus Monkeys
# For PBMC isolation, approximately 1 mL of blood sample was collected in a BD Vacutainer® EDTA Tubes (Catalog no. 36643, Becton, Dickinson and Co., Franklin Lakes, NJ, USA) with K2-EDTA and stored at room temperature (RT). The blood was diluted 1:1 with PBS at room temperature. The tube contents were mixed gently by pipetting up and down 5 times. The PBS/blood mixture was layered carefully on the top of 2 ml Ficoll® Paque Plus (Catalog no. 17-1440-03, Cytiva, Marlborough, MA, USA) in 15 mL falcon tubes, then centrifuged at RT for 30 minutes at 600 g with acceleration set at 6 and brake set at 0. The middle ‘cloudy’ interface between plasma and Ficoll® Paque Plus containing the PBMCs was transferred to a 15 mL tube and washed once with 10 mL of PBS, then centrifuged for 10 minutes at RT at 250 g. The supernatant was discarded without disturbing the cell pellet. If red blood cells were still present, 1 mL of lysis buffer was added, incubated for 2 minutes at RT, then 10 mL PBS was added to terminate lysis, and then centrifuged for 5 minutes at RT at 250 g. The supernatant was discarded without disturbing the cell pellet and stored at −80° C. until analysis.
# For cell counting, the cell suspension was diluted 1:1 with Trypan Blue dye and mixed well. The cell numbers (live and dead) were counted, and cell viability calculated. The cell numbers and cell viability of each PBMC sample were recorded.
# For sample preparation for MSD analysis, 2 million cells were subjected to lysis by 100 μL of RIPA lysis and extraction buffer (Catalog no 89900, ThermoScientific, Waltham, MA, USA) with phosphatase and protease inhibitors were added for 30 minutes at 4° C. To prepare RIPA lysis and extraction buffer with phosphatase and protease inhibitors, 1 tablet of cOmplete™, 1 tablet of PhosSTOP™, 100 μL each of Phosphatase Inhibitor Cocktail 2 and 3 (all catalog no. 11836153001, 4906845001, P5726 and P0044 respectively, Sigma Aldrich, St. Louis, MO, USA) were mixed with 10 mL RIPA buffer. The lysed PBMC samples were stored at −80° C. until analysis. Samples were completely thawed before being subjected to MSD analysis. The data was normalized using protein concentration and PBMC cell numbers, separately, for comparison.
# For biomarker detection of IRAK4 in samples, MSD® or Meso Scale Discovery® biomarker assays technology was utilized, which is an ELISA-based method.
# For the capture or coating step, 100 μL of IRAK4 Monoclonal Antibody (2H9) (Fisher, Catalog no. MA5-15883) was added to 96 well MSD multi-array 96 well plate (MSD Catalog no. L15XA-3, MSD multi-array 96 well plate). The plate was sealed and incubated overnight at 2-8° C. The plate was washed 5×300 μL/well with tris buffered saline wash buffer. 300 μL of blocking Buffer (3% BSA in 0.1% PBST) (Wuxi, Catalog no. BB-20211112-YJC) was added. The plate was sealed and incubated for 2 h±10 minutes at room temperature without shaking. The plate was washed 5×300 μL/well with tris buffered saline wash buffer. 100 μL of standard and samples were added into each well. The plate was sealed and incubated for 1 h 10 minutes at room temperature with shaking at 500 rpm. The plate was washed 5×300 μL/well with tris buffered saline wash buffer. 100 μL of detection solution containing IRAK4 antibody (Catalog no. 4363, Cell Signaling Technology, Danvers, MA, USA) was added into each well. The plate was sealed and incubated for 1 h 10 min at RT with shaking at 500 RPM. The plate was washed 5×300 μL/well with tris buffered saline wash buffer. 100 μL of sulfotag solution containing Sulfo-Tag labeled anti-rabbit antibody (Goat) (Catalog no. R32AB-1, Meso Scale Diagnostics, Rockville, MD, USA) was added into each well. The plate was sealed and incubated for 1 h+10 minutes at room temperature with shaking at 500 RPM. The plate was washed 5×300 […] with tris buffered saline wash buffer. […]
# T1 sequence (Q96SW2 whole entry partner, the tested form may be a part): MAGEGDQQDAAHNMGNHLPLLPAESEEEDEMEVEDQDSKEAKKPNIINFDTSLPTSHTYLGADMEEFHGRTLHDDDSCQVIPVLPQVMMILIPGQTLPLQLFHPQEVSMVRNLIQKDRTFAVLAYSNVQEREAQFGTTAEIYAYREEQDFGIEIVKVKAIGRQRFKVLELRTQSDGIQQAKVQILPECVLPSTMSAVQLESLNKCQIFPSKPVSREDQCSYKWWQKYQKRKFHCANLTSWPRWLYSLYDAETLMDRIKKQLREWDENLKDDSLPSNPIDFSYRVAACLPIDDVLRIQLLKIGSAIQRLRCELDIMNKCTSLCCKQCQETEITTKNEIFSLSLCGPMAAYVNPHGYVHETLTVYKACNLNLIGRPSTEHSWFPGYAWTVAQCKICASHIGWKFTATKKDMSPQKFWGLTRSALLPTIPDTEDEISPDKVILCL
# T1 sequence (Q16531 whole entry partner, the tested form may be a part): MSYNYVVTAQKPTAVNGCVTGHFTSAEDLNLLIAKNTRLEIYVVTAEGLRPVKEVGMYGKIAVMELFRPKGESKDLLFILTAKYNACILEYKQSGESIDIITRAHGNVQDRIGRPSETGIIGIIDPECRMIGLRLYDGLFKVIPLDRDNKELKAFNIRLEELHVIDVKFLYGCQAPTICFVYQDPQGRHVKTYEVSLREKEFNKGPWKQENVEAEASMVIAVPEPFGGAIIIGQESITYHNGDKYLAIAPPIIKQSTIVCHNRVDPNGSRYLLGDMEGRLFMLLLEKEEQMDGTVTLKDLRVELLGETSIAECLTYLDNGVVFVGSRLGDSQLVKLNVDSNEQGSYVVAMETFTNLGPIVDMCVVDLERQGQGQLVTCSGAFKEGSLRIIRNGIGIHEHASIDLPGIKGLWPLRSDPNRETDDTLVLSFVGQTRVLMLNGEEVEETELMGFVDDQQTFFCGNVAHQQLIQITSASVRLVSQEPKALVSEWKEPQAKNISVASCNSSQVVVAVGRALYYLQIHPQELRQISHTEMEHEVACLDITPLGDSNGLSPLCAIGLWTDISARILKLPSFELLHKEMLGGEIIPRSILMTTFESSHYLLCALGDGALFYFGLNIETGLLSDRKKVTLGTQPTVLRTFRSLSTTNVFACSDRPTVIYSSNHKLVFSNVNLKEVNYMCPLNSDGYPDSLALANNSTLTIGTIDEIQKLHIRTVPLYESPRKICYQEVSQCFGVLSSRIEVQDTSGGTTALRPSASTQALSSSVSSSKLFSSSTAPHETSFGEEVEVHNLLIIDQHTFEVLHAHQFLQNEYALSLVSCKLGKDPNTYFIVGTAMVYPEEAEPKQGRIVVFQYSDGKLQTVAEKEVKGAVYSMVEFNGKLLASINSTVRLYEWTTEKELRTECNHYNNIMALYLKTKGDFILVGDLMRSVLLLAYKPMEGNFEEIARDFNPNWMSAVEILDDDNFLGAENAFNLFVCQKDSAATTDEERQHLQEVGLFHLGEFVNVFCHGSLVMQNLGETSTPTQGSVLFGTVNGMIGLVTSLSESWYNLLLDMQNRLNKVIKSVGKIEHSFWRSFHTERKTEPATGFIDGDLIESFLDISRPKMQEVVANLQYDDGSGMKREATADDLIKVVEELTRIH
# T1 sequence (Q13422 whole entry, the tested form may be a part): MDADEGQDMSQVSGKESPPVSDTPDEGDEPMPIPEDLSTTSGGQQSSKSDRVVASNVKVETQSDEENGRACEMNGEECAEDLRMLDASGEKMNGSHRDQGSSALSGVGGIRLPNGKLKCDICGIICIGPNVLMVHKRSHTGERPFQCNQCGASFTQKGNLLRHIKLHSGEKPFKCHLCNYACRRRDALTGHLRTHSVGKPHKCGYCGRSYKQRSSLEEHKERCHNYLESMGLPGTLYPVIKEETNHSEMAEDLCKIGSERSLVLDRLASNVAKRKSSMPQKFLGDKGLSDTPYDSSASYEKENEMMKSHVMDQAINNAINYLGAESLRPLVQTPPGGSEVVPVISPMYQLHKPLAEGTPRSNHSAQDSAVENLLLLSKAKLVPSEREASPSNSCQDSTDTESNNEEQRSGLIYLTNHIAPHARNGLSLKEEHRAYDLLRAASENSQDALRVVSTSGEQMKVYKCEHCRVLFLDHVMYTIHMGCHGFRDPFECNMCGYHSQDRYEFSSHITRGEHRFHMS
Structure (SMILES),DC50 [1],IRAK4 change from vehicle ([2]; time 2 h),IRAK4 change from vehicle ([2]; time 8 h),IRAK4 change from vehicle ([2]; time 24 h),IRAK4 change from vehicle ([2]; time 48 h),IRAK4 change from vehicle ([2]; time 72 h),IRAK4 change from vehicle ([2]; time 96 h)
"CC(C)Oc1cc2nc([C@H]3CC[C@H](CN4CCC(c5ccc6c(c5)n(C)c(=O)n6C5CCC(=O)NC5=O)CC4)CC3)cn2cc1C(=O)Nc1cnn2cccnc12 (stereo partly shown) [Compound 48, 2-[4-[[4-[1-(2,6-dioxo-3-piperidyl)-3-methyl-2-oxo-benzimidazol-5-yl]-1-piperidyl]methyl]cyclohexyl]-7-isopropoxy-N-pyrazolo[1,5-a]pyrimidin-3-yl-imidazo[1,2-a]pyridine-6-carboxamide]",> 10 µM,−50%,−87%,−96%,−94%,−94%,−87%
"CC(C)Oc1cc2nc([C@H]3CC[C@H](CN4CCC(c5ccc6c(c5)n(C)c(=O)n6C5CCC(=O)NC5=O)CC4)CC3)cn2cc1C(=O)Nc1cccn([C@H]2C[C@H]2F)c1=O (stereo partly drawn) [Compound 169, 2-((1R,4S)-4-((4-(1-(2,6-dioxopiperidin-3-yl)-3-methyl-2-oxo-2,3-dihydro-1H-benzo[d]imidazol-5-yl)piperidin-1-yl)methyl)cyclohexyl)-N-(1-((1S,2R)-2-fluorocyclopropyl)-2-oxo-1,2-dihydropyridin-3-yl)-7-isopropoxyimidazo[1,2-a]pyridine-6-carboxamide]",,−62%,−83%,−97%,−97%,−94%,−90%
